Data on 29 compounds can be found in patent US20240409556A1, “BENZOPIPERAZINE AND RELATED ANALOGS FOR INHIBITING YAP/TAZ-TEAD” (Springworks Therapeutics, Inc., priority 2023, published 2024).

Some results are limits rather than exact numbers.

For the first assay, the system named is YAP/TAZ-TEAD transcription. Description: Reporter gene assay for measuring the inhibition of YAP/TAZ-TEAD transcription (TEAD-responsive element luciferase reporter in Hek293T cells). It counts as cell-based. Conditions: 24 hours incubation. As for the experimental part:
Example 56: Activity of Compounds of the Disclosure in a Reporter Gene Assay for Measuring the Inhibition of YAP/TAZ-TEAD Transcription
Hek293T cells were cultured in DMEM supplemented with 10% fetal bovine serum, Sodium pyruvate, Sodium bicarbonate, L-glutamine. The cells were harvested and transiently transfected with TEAD-responsive element luciferase reporter. Transfected cells were plated in 384-well plate containing pre-diluted compounds. After 24 hours incubation at 37° C./5% CO2, assay plates were cooled to room temperature and levelled to an equal volume per well, prior to the addition of 25 uL luciferase substrate SteadyLite (Perkin Elmer)/well. The plate was shaken for 10 min at 600 rpm, centrifuged for 1 min at 500 rpm and measured with an Envision reader (PerkinElmer). The amount of relative light units produced by the TEAD reporter was used to calculate the percentage of inhibition.
The percent of reporter inhibition was calculated in the presence of a positive control inhibitor (100% inhibition) versus a condition with the presence of the vehicle basal activity of the reporter (0% inhibition). The ability of a test compound to inhibit this activity was determined as: Percentage inhibition=[[…]((RLU determined in the presence of vehicle−RLU determined for sample with test compound present) divided by (RLU determined in the presence of vehicle−RLU determined for sample with positive control inhibitor))]*100.
The activities of example compounds tested are depicted in Table 3. The activity ranges A, B and C refer to IC50 values in the reporter gene assay as follows: “A”: IC50<1 μM; “B”: 1 μM≤IC50≤10 μM and “C”: IC50>10 μM; NT=not tested.
`CC(=O)N1CCN2c3ncccc3N(c3ccc(C(F)(F)F)cn3)CC2C1` (centres unmarked) [53-En2, 1-(5-(5-(trifluoromethyl)pyridin-2-yl)-5,6,6a,7,9,10-hexahydro-8H-pyrazino[1,2-a]pyrido[3,2-e]pyrazin-8-yl)ethan-1-one] gave a 50% inhibitory concentration (IC50) of over 10000 nM.
Turning to `CC(=O)N1CC(=O)N2c3ccccc3N(c3ccc(C(F)(F)F)cc3)CC2C1` (single isomer, unassigned) [79-En2, (R)- or (S)-3-acetyl-6-(4-(trifluoromethyl)phenyl)-2,3,4,4a,5,6-hexahydro-1H-pyrazino[1,2-a]quinoxalin-1-one], the IC50 was under 1000 nM.
Still for that read-out and setting: to `CC(=O)NCC1CN(c2ccc(C(F)(F)F)cc2)c2ccccc2N1` (single isomer, unassigned) [34-En1, (R)- or (S)-N-((4-(4-(trifluoromethyl)phenyl)-1,2,3,4-tetrahydroquinoxalin-2-yl)methyl)acetamide] belongs under 1000 nM; to `CC(=O)N1CCN2c3ncccc3N(c3ccc(C(F)(F)F)cn3)CC2C1` (centres unmarked) [compound 53, 1-(5-(5-(trifluoromethyl)pyridin-2-yl)-5,6,6a,7,9,10-hexahydro-8H-pyrazino[1,2-a]pyrido[3,2-e]pyrazin-8-yl)ethan-1-one], under 1000 nM.
For `FC(F)(F)c1ccc(N2CC3CC(c4nnn[nH]4)CCN3c3ccccc32)cc1` (single isomer, unassigned) [121-D3, 8-(1H-tetrazol-5-yl)-5-(4-(trifluoromethyl)phenyl)-6,6a,7,8,9,10-hexahydro-5H-pyrido[1,2-a]quinoxaline], the half-inhibitory concentration (IC50) is 1000 to 10000 nM.
Compound `CC(C)C(=O)N1CCN2c3ncccc3N(c3ccc(C(F)(F)F)cc3)CC2C1` (single isomer, unassigned) [47-En2, (R)- or (S)-2-methyl-1-(5-(4-(trifluoromethyl)phenyl)-5,6,6a,7,9,10-hexahydro-8H-pyrazino[1,2-a]pyrido[3,2-e]pyrazin-8-yl)propan-1-one] had a half-maximal inhibitory concentration (IC50) of under 1000 nM.
The compound `CC(=O)NCC1CN(c2ccc(C(F)(F)F)cc2)c2cccnc2O1` (single isomer, unassigned) [49-En2, (R)- or (S)-N-((1-(4-(trifluoromethyl)phenyl)-2,3-dihydro-1H-pyrido[2,3-b][1,4]oxazin-3-yl)methyl)acetamide] displayed an IC50 of 1000 to 10000 nM.
Compound `FC(F)(F)c1ccc(N2CC3CC(c4nnn[nH]4)CCN3c3ccccc32)cc1` (single isomer, unassigned) [121-D2, 8-(1H-tetrazol-5-yl)-5-(4-(trifluoromethyl)phenyl)-6,6a,7,8,9,10-hexahydro-5H-pyrido[1,2-a]quinoxaline] registered an IC50 of under 1000 nM.
`CC1(C(=O)O)CCN2c3ccccc3N(c3ccc(C(F)(F)F)cc3)CC2C1` [115-D1, (6aS,8S)— or (6aR,8S)— or (6aR,8R)— or (6aS,8R)-8-methyl-5-(4-(trifluoromethyl)phenyl)-6,6a,7,8,9,10-hexahydro-5H-pyrido[1,2-a]quinoxaline-8-carboxylic acid] registered a half-maximal inhibitory concentration (IC50) of 1000 to 10000 nM.

The assay is the same for the next values; noted with them: Homo sapiens, HEK-293T, 24 h, 24 hours incubation.
On to `C[C@@H](O)C(=O)N[C@@H]1C[C@@H]2CN(c3ccc(C(F)(F)F)cc3)c3cccnc3N2C1` [109-En1, (R)-2-hydroxy-N-((6aR,8R)-5-(4-(trifluoromethyl)phenyl)-5,6,6a,7,8,9-hexahydropyrido[3,2-e]pyrrolo[1,2-a]pyrazin-8-yl)propanamide], for which the IC50 is under 1000 nM.
For `CC(=O)NCC1CN(c2ccc(C(F)(F)F)cc2)c2ccccc2N1CCC(=O)O` (centres unmarked) [compound 8, 3-(2-(acetamidomethyl)-4-(4-(trifluoromethyl)phenyl)-3,4-dihydroquinoxalin-1(2H)-yl)propanoic acid], the IC50 was over 10000 nM.
Compound `O=C(O)C1CCN(c2ccccc2Nc2ccc(C(F)(F)F)cc2)C(=O)C1` (centres unmarked) [compound 119, 2-oxo-1-(2-((4-(trifluoromethyl)phenyl)amino)phenyl)piperidine-4-carboxylic acid] registered an IC50 of over 10000 nM.
On the same count and under the same terms, next, `O=C(O)[C@H]1C[C@@H]2CN(c3ccc(C(F)(F)F)cc3)c3cccnc3N2C1` [compound 113, (6aR,8S)-5-(4-(trifluoromethyl)phenyl)-5,6,6a,7,8,9-hexahydropyrido[3,2-e]pyrrolo[1,2-a]pyrazine-8-carboxylic acid]: 1000 to 10000 nM; `CNC(=O)N1CCN2c3ncccc3N(c3ccc(C(F)(F)F)cc3)CC2C1` (centres unmarked) [compound 52, N-methyl-5-(4-(trifluoromethyl)phenyl)-5,6,6a,7,9,10-hexahydro-8H-pyrazino[1,2-a]pyrido[3,2-e]pyrazine-8-carboxamide]: under 1000 nM; `O=C(NO)C1CCN2c3ccccc3N(c3ccc(C(F)(F)F)cc3)CC2C1` [116B-En1, (6aS,8S)- or (6aR,8S)- or (6aR,8R)- or (6aS,8R)-N-hydroxy-5-(4-(trifluoromethyl)phenyl)-6,6a,7,8,9,10-hexahydro-5H-pyrido[1,2-a]quinoxaline-8-carboxamide]: under 1000 nM.
Same read-out and setting: next, `CNC(=O)N[C@@H]1C[C@@H]2CN(c3ccc(C(F)(F)F)cc3)c3cccnc3N2C1` [compound 84, 1-methyl-3-((6aR,8R)-5-(4-(trifluoromethyl)phenyl)-5,6,6a,7,8,9-hexahydropyrido[3,2-e]pyrrolo[1,2-a]pyrazin-8-yl)urea]: under 1000 nM; `CC(=O)NCC1CN(c2ccc(C(F)(F)F)cn2)c2cccnc2O1` (centres unmarked) [compound 78, N-((1-(5-(trifluoromethyl)pyridin-2-yl)-2,3-dihydro-1H-pyrido[2,3-b][1,4]oxazin-3-yl)methyl)acetamide]: 1000 to 10000 nM.
Same read-out and setting: next, `NC(=O)C1CCN2c3ccccc3N(c3ccc(C(F)(F)F)cc3)CC2C1` (stereo not drawn) [117B-En1, (cis)- or (trans)-5-(4-(trifluoromethyl)phenyl)-6,6a,7,8,9,10-hexahydro-5H-pyrido[1,2-a]quinoxaline-8-carboxamide]: under 1000 nM.
Turning to `CC(=O)NCC1CN(c2ccc(C(F)(F)F)cc2)c2ccc(C(F)F)nc2O1` (centres unmarked) [compound 112, N-((6-(difluoromethyl)-1-(4-(trifluoromethyl)phenyl)-2,3-dihydro-1H-pyrido[2,3-b][1,4]oxazin-3-yl)methyl)acetamide], the IC50 was under 1000 nM.
On the same count and under the same terms, to `C=CC(=O)N1CCN2C(C1)CN(c1ccc(C(F)(F)F)cc1)C1C2C1(Cl)Cl` (centres unmarked) [compound 43, 1-(1,1-dichloro-2-(4-(trifluoromethyl)phenyl)octahydrocyclopropa[e]pyrazino[1,2-a]pyrazin-5(1H)-yl)prop-2-en-1-one] belongs under 1000 nM; to `O=C(O)C1CCN2c3ncccc3N(c3ccc(C(F)(F)F)cc3)CC2C1` (single isomer, unassigned) [96A, (cis)- or (trans)-5-(4-(trifluoromethyl)phenyl)-6,6a,7,8,9,10-hexahydro-5H-dipyrido[1,2-a:3′,2′-e]pyrazine-8-carboxylic acid], under 1000 nM.
The same measure, in the same setting: next, `CC(=O)NCC1CN(c2ccc(C(F)(F)F)cc2)c2cccnc2O1` (centres unmarked) [compound 49, N-((1-(4-(trifluoromethyl)phenyl)-2,3-dihydro-1H-pyrido[2,3-b][1,4]oxazin-3-yl)methyl)acetamide]: under 1000 nM; `CC(C)(O)C(=O)N[C@@H]1C[C@@H]2CN(c3ccc(C(F)(F)F)cc3)c3cccnc3N2C1` [compound 110, 2-hydroxy-2-methyl-N-((6aR,8R)-5-(4-(trifluoromethyl)phenyl)-5,6,6a,7,8,9-hexahydropyrido[3,2-e]pyrrolo[1,2-a]pyrazin-8-yl)propanamide]: under 1000 nM; `C=CC(=O)NCC1CN(c2ccc(C(F)(F)F)cc2)c2ccccc2N1CCCO` (centres unmarked) [compound 5, N-((1-(3-hydroxypropyl)-4-(4-(trifluoromethyl)phenyl)-1,2,3,4-tetrahydroquinoxalin-2-yl)methyl)acrylamide]: under 1000 nM.
Same read-out and setting: next, `CC(=O)NCCN1CCN(c2ccc(C(F)(F)F)cc2)c2ccccc21` [compound 57, N-(2-(4-(4-(trifluoromethyl)phenyl)-3,4-dihydroquinoxalin-1(2H)-yl)ethyl)acetamide]: under 1000 nM; `CC(=O)N[C@H]1C[C@@H]2CN(c3ccc(C(F)(F)F)cc3)c3cccnc3N2C1` [70-D2, N-((6aR,8S)-5-(4-(trifluoromethyl)phenyl)-5,6,6a,7,8,9-hexahydropyrido[3,2-e]pyrrolo[1,2-a]pyrazin-8-yl)acetamide]: under 1000 nM.
In turn, `CC(=O)NCC1CN(c2ccc(C(F)(F)F)cc2)c2ccc(C#N)nc2O1` (single isomer, unassigned) [99-En1 or 99-En2, (R)- or (S)—N-((6-cyano-1-(4-(trifluoromethyl)phenyl)-2,3-dihydro-1H-pyrido[2,3-b][1,4]oxazin-3-yl)methyl)acetamide] showed an IC50 of 1000 to 10000 nM.
Same read-out and setting: next, `CC(=O)N1CC2CN(c3ccc(C(F)(F)F)cc3)c3cccnc3N2C1=O` (centres unmarked) [compound 59, 8-acetyl-5-(4-(trifluoromethyl)phenyl)-6,6a,7,8-tetrahydroimidazo[1,5-a]pyrido[3,2-e]pyrazin-9(5H)-one]: over 10000 nM; `C=CC(=O)N1CC2CN(c3ccc(C(F)(F)F)cc3)c3ccccc3N2CC1C(=O)O` (stereo not drawn) [compound 88, (cis)- or (trans)-3-acryloyl-6-(4-(trifluoromethyl)phenyl)-2,3,4,4a,5,6-hexahydro-1H-pyrazino[1,2-a]quinoxaline-2-carboxylic acid]: under 1000 nM.
